From patent US11352350B2, “IRAK degraders and uses thereof” (Kymera Therapeutics, Inc., priority 2018, dated 2022)

Assays:
IRAK4 [1] = target: T1, IRAK4 (Homo sapiens (Human), UniProt Q9NWZ3); experiment: IRAK4 MSD degradation in OCI-LY10; format: cell-based; conditions: MSD
In short: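 OCI-LY10 cells treated with 8-point 1:3 dilutions (top 1 to 10 μM final) for 4 to 24 h at 37° C. Lysate IRAK4 measured by MSD sandwich immunoassay (2H9 capture, Y279 detection, SULFO-TAG anti-rabbit). DC50 from three-parameter logistic fit.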

OCI-LY10 = experiment: CTG Cell Viability Assay - OCI-LY10; format: cell-based, human; conditions: Homo sapiens, OCI-Ly10, 96 h, OCI-LY10, 4 days; read-out: CTG Cell Viability Assay - OCI-LY10: Average external-IC50
In short: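 OCI-LY10 cells exposed to 9-dose, 1:3 dilutions from 10 μM top (0.2% DMSO) for 4 days at 37° C, 5% CO2. Viability by CellTiter-Glo luminescence; IC50 from three-parameter logistic fit.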

IRAK4 [2] = target: T1, IRAK4; experiment: IRAK4 degradation in human whole blood monocyte - flow cytometry; format: cell-based; conditions: read-out: IRAK4 degradation in whole blood monocyte-Flow cytometry: Average external Abs IC50
Procedure: (§1) Human whole blood IRAK4 degradation flow assay. Whole blood was collected in heparinized tubes and plated on the same day as draw (day 0). Whole blood was aliquoted into deep well plates. Compound plates were prepared and a 10 point, 5-fold dilution was performed with a final DMSO concentration of 0.1%. Compound was added to whole blood deep well plate, sealed and incubated at 37° C., 5% CO2 for 20 hours (for 4 hour treatment, compounds were prepared and added the following day). Following the treatment incubation period (day 1), BD lyse fix (BD #558049) was added to the whole blood plate, placed on plate shaker for 30 seconds and incubated for 10 mins at room temperature. Whole blood was then spun down and washed two times with PBS/0.5% BSA, aspirated to pellet and placed into −80° C. freezer until further processing for flow. On the flow run day, whole blood plates were thawed and samples were transferred to PCR plates. The pre-perm staining cocktail (CD3 Ax488/CD8 BUV805/CD14 BUV395/CD16/56 BV711/CD19 BV785) was added to samples and incubated for 30 minutes at room temperature. Samples were washed two times and permeabilized with Methanol for 10 minutes at 4° C. Samples were washed two times and the post-perm staining cocktail (CD4 PE/IRAK4 Ax647 BD #560315) was added and incubated for 30 minutes at room temperature. Samples were washed two times with PBS/BSA and run on a BD LSRFortessa. Mononuclear cells are gated by SSCH/FSCH and single cells. Monocytes are then gated through CD14 positive gate and lymphocytes are gated through CD14 negative gate. To determine absolute DC50 and max degradation values, MFI values were normalized to DMSO max and 20 hour 10 μM min control. Twenty hour dose curves were calculated using a 4 parameter logistic regression curve fit, no constraints (Top doses were removed if hook effects were observed and the bottom was constrained to 0).

IRAK4 [3] = target: T1, IRAK4; experiment: IRAK4 degradation in human whole blood lymphocyte - flow cytometry; format: cell-based; conditions: read-out: IRAK4 degradation in whole blood lymphocyte-Flow cytometry: Average external Abs IC50
Procedure: as §1

TNFα [4] = experiment: Human PBMC LPS TNFα assay; format: cell-based; conditions: hPBMC, LPS stimulation, read-out: IRAK4 hPBMC LPS TNF-α inhibition: Average external-IC50
Procedure: Human PBMC LPS TNFα assay. Frozen PBMCs were thawed into RPMI with 10% FBS/1% penicillin/streptomycin and same day plated into 96 well plates at 200,000 PBMC/[…] media per well. Compound plates were prepared in DMSO with D300 cassette as 8-point dose curves in duplicate, starting dose 2 μM, 5-fold. Compounds are added 200 nL into cells for final 200 μL per well. Compound and cells were incubated at 37° C., 5% CO2 for 20 hours. After twenty hours of pretreatment with the compounds, LPS (01 1 1:B4) (Sigma #L2637) was added at 100 ng/ml final concentration and PBMCs incubated an additional five hours at 37° C., 5% CO2. Following assay completion, PBMC plates were spun down at 2000 rpm for 10 minutes. 100 uL of supernatant was carefully removed and placed into a new 96 well Costar (#3879) plate and stored at −80° C. until further analysis. Meso scale Discovery (MSD) human V-plex assays were used to measure cytokine levels. On day of cytokine analysis, supernatant samples were thawed, diluted with V-plex diluent #2, and directly to MSD plates. Assay was further completed per standard manufacturer's protocol. Cytokine data was normalized to LPS stimulated and unstimulated controls. Prism Graphpad was used to generate IC50 using 4 parameter logistic regression curve, free-fit.

TNFα [5] = experiment: Human whole blood LPS TNFα assay; format: cell-based; conditions: 20 h pretreatment, LPS 5 h, read-out: IRAK4 human whole blood LPS TNFa inhibition: Average external-IC50
Procedure: Human Whole blood LPS TNFα assay. Whole blood was collected fresh and plated same day into 96 well plates at 180 μL per well. Compound plates were prepared in DMSO as 8-point dose curves in duplicate, starting dose 2 μM, 5-fold. Compounds are added 20 μL into blood for final 200 μL per well. Compound and cells were incubated at 37° C., 5% CO2 for 20 hours. After twenty hours of pretreatment with the compounds, LPS (01 1 1:B4) (Sigma #L2637) was added at 100 ng/ml final concentration and blood incubated an additional five hours at 37° C., 5% CO2. Following assay completion, whole blood plates were spun down at 2000 rpm for 15 minutes at 4° C. 50 μL of plasma was carefully removed and placed into a new 96 well Costar (#3879) plate and stored at −80° C. until further analysis. Meso scale Discovery (MSD) human V-plex assays were used to measure cytokine levels. On day of cytokine analysis, plasma samples were thawed, diluted with V-plex diluent #2, and directly to MSD plates. Assay was further completed per standard manufacturer's protocol. Cytokine data was normalized to LPS stimulated and unstimulated controls. Prism Graphpad was used to generate IC50 using 4 parameter logistic regression curve, free-fit.

[6] = OCI-LY10, 4 hrs, read-out: IRAK4 MSD degradation in OCI-LY10 at 4 hrs: Average external-Abs DC50

T1 sequence (Q9NWZ3 whole entry): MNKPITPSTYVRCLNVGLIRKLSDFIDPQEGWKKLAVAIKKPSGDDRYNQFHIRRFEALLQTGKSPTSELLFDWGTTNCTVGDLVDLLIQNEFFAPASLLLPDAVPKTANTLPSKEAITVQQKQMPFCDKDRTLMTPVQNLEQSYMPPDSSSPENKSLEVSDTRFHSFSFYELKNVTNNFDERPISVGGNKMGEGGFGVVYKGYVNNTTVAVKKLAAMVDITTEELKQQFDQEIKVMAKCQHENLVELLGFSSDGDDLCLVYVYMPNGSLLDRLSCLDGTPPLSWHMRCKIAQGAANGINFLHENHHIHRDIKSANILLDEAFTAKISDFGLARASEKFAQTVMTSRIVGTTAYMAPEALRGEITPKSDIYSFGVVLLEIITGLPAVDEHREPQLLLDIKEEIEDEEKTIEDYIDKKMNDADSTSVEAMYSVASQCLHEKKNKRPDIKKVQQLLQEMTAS

| Compound | DC50 (IRAK4 [1]; [6]) | IC50 (OCI-LY10) | IC50 (IRAK4 [2]) | DC50 (IRAK4 [3]) | IC50 (TNFα [4]) | IC50 (TNFα [5]) | DC50 (IRAK4 [2]) | DC50 (IRAK4 [1]; OCI-LY10, 24 hrs, read-out: IRAK4 MSD degradation in OCI-LY10 at 24 hrs: Average external-Abs DC50) |
| --- | --- | --- | --- | --- | --- | --- | --- | --- |
| Cn1c(=O)n(C2CCC(=O)NC2=O)c2cccc(CCCOCCOCCNC[C@H]3CC[C@H](n4cc(NC(=O)c5coc(-c6ccnc(NCC7CC7)c6)n5)c(C(F)F)n4)CC3)c21 (stereo partly shown) [I-2] | 100 to 1000 nM | 100 to 500 nM | < 50 nM | < 50 nM | 100 to 500 nM | > 1000 nM |  |  |
| Cn1c(=O)n(C2CCC(=O)NC2=O)c2cccc(CCCOCCNC[C@H]3CC[C@H](n4cc(NC(=O)c5coc(-c6ccnc(NCC(F)(F)F)c6)n5)c(C(N)=O)n4)CC3)c21 (stereo partly shown) [I-11] | < 10 nM | > 1000 nM | < 50 nM | < 50 nM | < 50 nM | > 1000 nM |  |  |
| Cn1c(=O)n(C2CCC(=O)NC2=O)c2ccc(CCCN3CCO[C@@H](CNC[C@H]4CC[C@H](n5cc(NC(=O)c6coc(-c7ccnc(NCC8CC8)c7)n6)c(C(F)F)n5)CC4)C3)cc21 (stereo partly shown) [I-16] | < 10 nM | 100 to 500 nM | < 50 nM | 50 to 100 nM | 100 to 500 nM | > 1000 nM |  |  |
| CN(C[C@@H]1CN(CCCc2ccc3c(c2)n(C)c(=O)n3C2CCC(=O)NC2=O)CCO1)C(=O)[C@H]1CC[C@H](n2cc(NC(=O)c3coc(-c4ccnc(NCC5CC5)c4)n3)c(C(F)F)n2)CC1 (stereo partly shown) [I-17] | < 10 nM | 100 to 500 nM | < 50 nM | 50 to 100 nM | < 50 nM | 500 to 1000 nM |  |  |
| C=C(C)c1nn([C@H]2CC[C@H](C(=O)N(C)CCCOCCCc3cccc4c3n(C)c(=O)n4C3CCC(=O)NC3=O)CC2)cc1NC(=O)c1coc(-c2ccnc(NCC3CC3)c2)n1 (stereo partly shown) [I-31] | 100 to 1000 nM | 100 to 500 nM |  | 100 to 500 nM | 100 to 500 nM | > 1000 nM | 50 to 100 nM |  |
| CN(CCOCCOCCCc1cccc2c1n(C)c(=O)n2C1CCC(=O)NC1=O)C(=O)[C@H]1CC[C@H](n2cc(NC(=O)c3coc(-c4ccnc(NCC5CC5)c4)n3)c(C(F)F)n2)CC1 (stereo partly shown) [I-32] | < 10 nM | 100 to 500 nM | < 50 nM | 50 to 100 nM | 50 to 100 nM | > 1000 nM |  |  |
| CN(C[C@@H]1CN(CCCc2ccc3c(c2)n(C)c(=O)n3C2CCC(=O)NC2=O)CCO1)C[C@H]1CC[C@H](n2cc(NC(=O)c3coc(-c4ccnc(NCC5CC5)c4)n3)c(C(C)(C)O)n2)CC1 (stereo partly shown) [I-33] | < 10 nM | > 1000 nM |  | < 50 nM | 500 to 1000 nM |  | 500 to 1000 nM |  |
| CN(C[C@H]1CN(CCCc2ccc3c(c2)n(C)c(=O)n3C2CCC(=O)NC2=O)CCO1)C[C@H]1CC[C@H](n2cc(NC(=O)c3coc(-c4ccnc(NCC5CC5)c4)n3)c(C(F)F)n2)CC1 (stereo partly shown) [I-34] | < 10 nM | > 1000 nM | < 50 nM | < 50 nM | 100 to 500 nM | 100 to 500 nM |  |  |
| Cn1c(=O)n(C2CCC(=O)NC2=O)c2ccc(CCCN3CCO[C@H](CNC[C@H]4CC[C@H](n5cc(NC(=O)c6coc(-c7ccnc(NCC8CC8)c7)n6)c(C(F)F)n5)CC4)C3)cc21 (stereo partly shown) [I-35] | 10 to 100 nM | < 50 nM | < 50 nM | 50 to 100 nM | 100 to 500 nM | 500 to 1000 nM |  |  |
| CN(C[C@@H]1CN(CCCc2ccc3c(c2)n(C)c(=O)n3C2CCC(=O)NC2=O)CCO1)C[C@H]1CC[C@H](n2cc(NC(=O)c3coc(-c4ccnc(NCC5CC5)c4)n3)c(C(F)F)n2)CC1 (stereo partly shown) [I-36] | 10 to 100 nM | 500 to 1000 nM | < 50 nM | < 50 nM | 100 to 500 nM | 100 to 500 nM |  |  |
| Cn1c(=O)n(C2CCC(=O)NC2=O)c2cccc(CCCN3CCO[C@H](CNC[C@H]4CC[C@H](n5cc(NC(=O)c6coc(-c7ccnc(NCC8CC8)c7)n6)c(C(F)F)n5)CC4)C3)c21 (stereo partly shown) [I-37] | 10 to 100 nM | < 50 nM | < 50 nM | < 50 nM | < 50 nM | 100 to 500 nM |  |  |
| Cn1c(=O)n(C2CCC(=O)NC2=O)c2cccc(CCCN3CCO[C@@H](CNC[C@H]4CC[C@H](n5cc(NC(=O)c6coc(-c7ccnc(NCC8CC8)c7)n6)c(C(F)F)n5)CC4)C3)c21 (stereo partly shown) [I-38] | < 10 nM | < 50 nM | < 50 nM | 50 to 100 nM | < 50 nM | 100 to 500 nM |  |  |
| O=C1CCC(N2C[C@H](c3cccc(C#CCN4CCO[C@@H](CNC[C@H]5CC[C@H](n6cc(NC(=O)c7coc(-c8ccnc(NCC9CC9)c8)n7)c(C(F)F)n6)CC5)C4)c3)OC2=O)C(=O)N1 (stereo partly shown) [I-39] | 10 to 100 nM | 50 to 100 nM |  | 100 to 500 nM | 50 to 100 nM | 100 to 500 nM | 50 to 100 nM |  |
| O=C1CCC(N2C[C@H](c3ccc(C#CCN4CCO[C@@H](CNC[C@H]5CC[C@H](n6cc(NC(=O)c7coc(-c8ccnc(NCC9CC9)c8)n7)c(C(F)F)n6)CC5)C4)cc3)OC2=O)C(=O)N1 (stereo partly shown) [I-40] | 10 to 100 nM | < 50 nM | < 50 nM | 100 to 500 nM | < 50 nM | 100 to 500 nM |  |  |
| CN(CCCOCCCc1cccc2c1n(C)c(=O)n2C1CCC(=O)NC1=O)C[C@H]1CC[C@H](n2cc(NC(=O)c3cccc(C(F)(F)F)n3)c(C(F)F)n2)CC1 (stereo partly shown) [I-44] | > 1000 nM | > 1000 nM |  |  | > 1000 nM | > 1000 nM |  | > 1000 nM |
| CN(CCCCOCCCCc1cccc2c1n(C)c(=O)n2C1CCC(=O)NC1=O)C[C@H]1CC[C@H](n2cc(NC(=O)c3coc(-c4ccnc(NCC5CC5)c4)n3)c(C(F)F)n2)CC1 (stereo partly shown) [I-67] | < 10 nM | < 50 nM |  | 50 to 100 nM | 50 to 100 nM |  | 50 to 100 nM |  |
| CN(CC1CCN(Cc2cccc3c2n(C)c(=O)n3C2CCC(=O)NC2=O)CC1)C[C@H]1CC[C@H](n2cc(NC(=O)c3coc(-c4ccnc(NCC5CC5)c4)n3)c(C(F)F)n2)CC1 (stereo partly shown) [I-76] | < 10 nM | < 50 nM |  | 50 to 100 nM | < 50 nM |  | 50 to 100 nM |  |
| O=C1CCC(n2c3cc(CCCOCCOCCNC[C@H]4CC[C@H](n5cc(NC(=O)c6coc(-c7ccnc(NCC8CC8)c7)n6)c(C(F)F)n5)CC4)ccc3c3cccnc32)C(=O)N1 (stereo partly shown) [I-81] | 100 to 1000 nM | > 1000 nM | > 1000 nM | > 1000 nM | 500 to 1000 nM |  |  |  |
